# Data published in US20070053994A1, “Anti-inflammatory treatment” (priority 2003, published 2007).
# Test system: severe psoriasis (person)
# Test: Case report: treatment of severe psoriasis of hands, arms and feet
# Assay type: in vivo, human
# Conditions: effects did not last following long term treatment
compound,measurement,value
C[C@]12CCC(=O)C=C1CC[C@@H]1[C@@H]2C(=O)C[C@@]2(C)[C@H]1CC[C@]2(O)C(=O)CO [cortisone],effect of earlier treatment on psoriasis (patient history),some effects
